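Briefly, cells in 96-well plates were exposed to five compound concentrations for 48 h, and endpoints were estimated by linear interpolation. TGI denotes the concentration required for complete inhibition of growth.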
Experiments:
Assay in all cases: NCI tumour cell line growth inhibition, 48 h
[1] = system: DMS 273 small cell lung
[2] = system: HT29 colon
[3] = system: UACC-62 melanoma
[4] = system: LOX IMVI melanoma
[5] = system: EKVX NSCLC
[6] = system: IGROV1 ovarian
[7] = system: NCI-H23 lung
[8] = system: MOLT-4 leukemia
[9] = system: HCT-116 colon
[10] = system: TK-10 renal
[11] = system: OVCAR-8 ovarian
[12] = system: NCI-H460 lung
[13] = system: UACC-257 melanoma
[14] = system: A549 NSCLC
[15] = system: SF-268 CNS
[16] = system: HOP-92 NSCLC
[17] = system: SR leukemia
[18] = system: T-47D breast
[19] = system: HS 578T breast
[20] = system: NCI/ADR-RES ovarian

Compound | TGI [1] [µM] | TGI [2] [µM] | TGI [3] [µM] | TGI [4] [µM] | TGI [5] [µM] | TGI [6] [µM] | TGI [7] [µM] | TGI [8] [µM] | TGI [9] [µM] | TGI [10] [µM] | TGI [11] [µM] | TGI [12] [µM] | TGI [13] [µM] | TGI [14] [µM] | TGI [15] [µM] | TGI [16] [µM] | TGI [17] [µM] | TGI [18] [µM] | TGI [19] [µM] | TGI [20] [µM]
CC1SC2=NC3=C(c4ccccc4C3=O)C(c3ccccc3Cl)N2C1=O (centres undefined) | > 100 | > 100 | > 100 | > 100 | > 100 | > 100 | > 100 | > 100 | > 100 | > 100 | > 100 | > 100 | > 100 | > 100 | > 100 | > 100 |  |  |  | 
CCCCCCCC(=O)OC[C@H](C[As](=O)(O)O)OC(=O)CCCCCCC | 24 | 25.2 | 21.3 |  | 80.7 | 14.4 | 28.2 | 14.1 | 19.2 |  | 32 |  | 27.2 | 18.7 | 15.6 | 31.1 | 22.8 |  |  | 
CSc1nc(NC2OCC(OC(C)=O)C(OC(C)=O)C2OC(C)=O)c2c(n1)OCC2=O (centres undefined) | > 100 | > 100 | > 100 | > 100 | > 100 | > 100 | > 100 | > 100 | > 100 | > 100 | > 100 | > 100 | > 100 | > 100 | > 100 |  |  |  |  | 
Oc1ccc(C2Oc3cc(O)cc4c3C2c2cc(O)cc3c2C(c2cc(O)cc5c2C4C(c2ccc(O)cc2)O5)C(c2ccc(O)cc2)O3)cc1 (centres undefined) | > 25 |  | > 25 | > 25 | > 25 |  | 22.9 | > 25 | > 25 | > 25 | 22.8 | > 25 | > 25 | > 25 | > 25 | 21.3 | > 25 |  |  | 
O=C(O[C@H]1[C@@H]2C=CO[C@@H](OC3OC(CO)C(O)C(O)C3O)[C@@H]2[C@@]2(CO)O[C@@H]12)c1ccc(O)c(O)c1 (some centres undefined) | > 100 | > 100 | > 100 | > 100 | > 100 | > 100 | > 100 | > 100 |  | > 100 | > 100 | > 100 | > 100 | > 100 | > 100 | > 100 |  |  |  | 
O=c1c(C(c2ccc([N+](=O)[O-])cc2)c2c(O)c3ccccc3n(-c3ccccc3)c2=O)c(O)c2ccccc2n1-c1ccccc1 | > 100 |  | 14.8 | 27.2 | 59.7 | > 100 | 34.3 | 41.9 | 76.5 | > 100 | 73.9 |  |  | > 100 | 98.6 | 29.3 | 62.7 |  |  | 
CN/N=C(\C)C(CN1CCCCC1)C(C1=C(O)c2ccccc2OC1)c1ccccc1 (centres undefined) | > 100 | > 100 | > 100 | > 100 | > 100 | > 100 | > 100 | > 100 | > 100 | > 100 | > 100 | > 100 | > 100 | > 100 | > 100 |  | > 100 |  |  | 
O=C1/C(=C/C=C/c2ccccc2)N=C(c2ccccc2)N1c1ccc(S(=O)(=O)Nc2nccs2)cc1 |  | 49.8 | 61.7 | 55.1 | 84.7 | 44.5 | 63.8 | > 100 | > 100 | > 100 | > 100 | > 100 | > 100 | > 100 | 39.8 | > 100 | > 100 | > 100 | > 100 | > 100
[N-]=[N+]=Nc1c(-c2ccccc2)c(=O)n(-c2ccccc2)c2ccccc12 |  | > 100 | > 100 | > 100 | 48.8 | > 100 | > 100 | > 100 | > 100 | > 100 | > 100 | > 100 | > 100 | > 100 | 62.3 | > 100 | > 100 | 82.2 | > 100 | > 100
O=C(O)/C=C/c1ccc(OS(=O)(=O)O)cc1 |  | > 100 | > 100 | > 100 | > 100 | > 100 | > 100 | > 100 | > 100 | > 100 | > 100 | > 100 | > 100 | > 100 | > 100 | > 100 | > 100 | > 100 | > 100 | > 100
c1cc(C2=NCCO2)c2ccsc2c1 |  | > 100 | > 100 | > 100 | > 100 | > 100 | > 100 | > 100 | > 100 | > 100 | > 100 | > 100 | > 100 | > 100 | > 100 | > 100 | > 100 | > 100 | 49.8 | > 100
CN(/N=C/c1ccc(Cl)c(Cl)c1)C1=NCCCCN1 |  | > 100 | 52.8 | 27.2 | > 100 | > 100 | > 100 | 80.9 | 79.4 | > 100 | > 100 | > 100 | 50.8 | > 100 | > 100 | 49.6 | > 100 | > 100 | > 100 | > 100
CC(=O)OC12CC[N+]3(C)CCCCC3C1=Nc1ccccc12 (centres undefined) |  | > 100 | > 100 | > 100 | > 100 | > 100 | > 100 | > 100 | > 100 | > 100 | > 100 | > 100 | > 100 | > 100 | > 100 | > 100 | > 100 | > 100 | > 100 | > 100
